Assay results from article PMC10619133, “The catechol moiety of obafluorin is essential for antibacterial activity” (RSC Chemical Biology, 2023).
Values after ≈ are worked out from the molar mass of the structure shown.

Tests used:
[1] = test system: B. subtilis; experiment: Spot-on-lawn MIC bioassay; format: cell-based, B. subtilis EC 1524; conditions: Bacillus subtilis, standard conditions, read-out: MIC
Protocol: Indicator strains were grown for 16–18 h in LB (5 mL) by inoculation from a single colony. An aliquot of the resulting culture (500 μL) was then used to inoculate LB (50 mL in 250 mL Erlenmeyer flasks), followed by orbital shaking at 250 rpm until they reached an OD600 of 0.3–0.4. These cultures were then diluted 1 : 10 with molten soft nutrient agar (SNA), before pouring into appropriately sized Petri dishes to set. Serial dilutions of the test compounds (from 256 μg mL^−1 to 1 μg mL^−1 plus an additional sample at 1000 μg mL^−1) were prepared in acetonitrile (ACN), and 4 μL of each sample was applied directly onto the SNA surface. Kanamycin (50 μg mL^−1), apramycin (50 μg mL^−1) or aureobasidin A (0.2 μg mL^−1) were used as positive controls, as appropriate, and ACN or water (4 μL) were used as negative controls. […] Experiments were carried out in at least triplicate for each strain.

[2] = biological target: T1, EcThrRS (Escherichia coli, UniProt P0A8M3); experiment: Aminoacylation assay; format: biochemical, E. coli; conditions: enzyme 10 nM
T1 construct: His6 (N); made in house; host or cells: E. coli NiCo21(DE3)
T1 sequence (P0A8M3 whole entry): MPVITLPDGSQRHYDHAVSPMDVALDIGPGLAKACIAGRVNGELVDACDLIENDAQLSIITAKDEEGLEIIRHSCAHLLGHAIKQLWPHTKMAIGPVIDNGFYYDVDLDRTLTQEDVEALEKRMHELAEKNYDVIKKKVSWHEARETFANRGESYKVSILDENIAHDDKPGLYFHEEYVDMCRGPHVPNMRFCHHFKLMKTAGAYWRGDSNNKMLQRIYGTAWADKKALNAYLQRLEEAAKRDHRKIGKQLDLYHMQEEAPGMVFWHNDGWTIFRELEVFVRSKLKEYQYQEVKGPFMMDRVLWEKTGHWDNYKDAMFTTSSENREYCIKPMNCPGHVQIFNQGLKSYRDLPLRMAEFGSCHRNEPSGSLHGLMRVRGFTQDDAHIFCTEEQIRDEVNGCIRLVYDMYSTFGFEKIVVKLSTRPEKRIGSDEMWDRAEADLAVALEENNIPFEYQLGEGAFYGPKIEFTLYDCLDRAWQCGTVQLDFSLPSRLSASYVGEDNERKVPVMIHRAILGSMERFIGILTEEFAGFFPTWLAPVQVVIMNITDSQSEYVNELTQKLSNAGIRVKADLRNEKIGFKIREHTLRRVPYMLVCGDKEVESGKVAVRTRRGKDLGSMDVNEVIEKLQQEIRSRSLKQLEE
Protocol: To measure the effects of 1–4 on ThrRS canonical tRNA charging activity, an assay modified from that reported by Ruan et al.[53] was used, where active enzyme was incubated with its necessary substrates and its activity measured using ^14C labeled Thr and a liquid scintillation counter. Purified ThrRS protein (10 nM) was pre-incubated with varying concentrations of compounds 1–4 or ACN for 10 min. After pre-incubation, ThrRS samples were added to a master reaction mixture with the final component concentrations of HEPES (100 mM, pH 7.0), ATP (4 mM), MgCl2 (10 mM), L-[U-^14C]threonine (50 μM, Moravek Inc.), and tRNA^Thr (5 μM). This mixture was incubated at room temperature for 10 min, with samples taken at 1, 2.5, 5, and 10 min. At each time point, a 7 μL aliquot was spotted onto a 5% trichloroacetic acid (TCA) presoaked 3 MM Whatman paper (Cytiva) squares (repeated in triplicate). After allowing the spots to dry, the Whatman paper was washed three times with 5% TCA, and once with 95% EtOH. The Whatman paper was dried and the counts on each square of paper analyzed using a Tri-Carb 2910 TR liquid scintillation counter using Hydrofluor Liquid Scintillation Fluid (National Diagnostics). To calculate IC50 values, fractional initial velocities (velocity of inhibited reaction/velocity in the absence of inhibitor) were plotted against the log of 1 concentration and then fitted to eqn (1), using GraphPad Prism.1 [drawing 1]

[3] = Hydrolysis of the β-lactone in HEPES buffer monitored by HPLC; format: physicochemical; conditions: for hydrolysis of β-lactone (in words): 30 min, no Fe^3+
Protocol: Hydrolysis of 1–4 was analysed on an Agilent 1290 system fitted with an Agilent LC/MSD MS spectrometer. A Kinetex XB-C18, 100 × 4.6 mm, 5 μM column (Phenomenex) was used with a gradient elution: ACN/0.1% (v/v) FA (H2O) gradient from 5/95 for 0–0.5 min, 5/95 to 98/2 0.5–12 min, 98/2 for 12–13 min, gradient to 5/95 13–13.5 min and 5/95 for 13.5–15 min. The flow rate was 0.6 mL min^−1 and the injection volume of each sample 5 μL. DAD signals were analysed at 270 nm, with a bandwidth of 4 nm. MS were recorded in positive mode using an atmospheric pressure ionisation electrospray (API-ES) ion source with a capillary voltage of 3000 V. The drying gas temperature was 350 °C with a flow rate of 12 L min^−1. The scan parameters were: mass range = 200–1500; fragmentor = 70; gain EMV = 1.0; threshold = 150; step-size = 0.10. Data were analysed with Agilent ChemStation software.
Five solutions of HEPES buffer (111 mM) were prepared at pH 6.0, 6.5, 7.0, 7.5 and 8.0 respectively. A further five solution of HEPES buffer (111 mM) with Fe(NO3)3.9H2O ([…]) were also prepared at pH 6.0, 6.5, 7.0, 7.5, 8.0 respectively. Stock solutions of 1–4 (10 mM) were prepared in DMSO. For each hydrolysis experiment, stock solution of 1–4 (10 μL) was added the HEPES buffer (90 μL) or the HEPES + Fe(NO3)3.9H2O buffer (90 μL), to give final concentrations of HEPES (100 mM), 1–4 (1 mM) and Fe^3+ (0 or 1 mM). The reaction mixtures were shaken using a bench top vortex and left to stand for 30 min, after which the samples were analysed by HPLC using the Analytical HPLC method. All stock solutions of 1–4 were tested at every pH, with and without Fe^3+ and all experiments were repeated in triplicate.

[4] = test system: Streptococcus pyogenes; design: method as in doi:10.1021/jo00350a010; conditions: dosed systemically; cited from earlier work

**Q.** Which MIC [1] does the source give for O=C(N[C@@H]1C(=O)O[C@@H]1Cc1ccc([N+](=O)[O-])cc1)c1cccc(O)c1O [compound 1, Obafluorin] here?
**A.** Its MIC is 4 µg/mL (≈ 11.2 µM).

**Q.** And the “concentration at which complete inhibition was observed” value [2]?
**A.** The value was “around 100 nM”.

**Q.** What about the IC50 ([2]; 10 min preincubation with compound, read-out: IC50) of the same compound?
**A.** Its IC50 is 0.035 ± 0.004 µM.

**Q.** And the “effect of added Fe^3+ on hydrolysis (in words)” value ([3]; Fe^3+ 1 mM, HEPES 100 mM, pH 6.0–8.0, 30 min)?
**A.** The value was “protected 1 against hydrolysis at all pH values”.

**Q.** And the “hydrolysis of β-lactone (in words)” value ([3]; pH 6.0, HEPES 100 mM)?
**A.** Its value is “little change”.

**Q.** What about the “hydrolysis of β-lactone (in words)” value ([3]; pH 8.0, HEPES 100 mM) of the same compound?
**A.** Its value is “majority of 1 in the hydrolysed form”.

**Q.** What about the “protection of infected mice (in words)” value [4] of the same compound?
**A.** Its value is “can protect mice”.

**Q.** What about the “toxicity in mice (in words)” value [4] of the same compound?
**A.** The value was “no observable toxicity”.
